# According to patent publication US11690810B2, “Combination treatment of bacterial infection” (The Chinese University of Hong Kong, priority 2018, dated 2023):
# Like-named read-outs stand apart in the source and are kept apart here.
# How the values were obtained:
# [1] = tested on: S. aureus SA-1199B (NorA efflux pump overexpressed); test: MIC and checkerboard (FIC) assay; conditions: for FIC / MIC combine: 1199B; for MIC: read-out: MIC alone, 1199B
# [2] = tested on: Human Umbilical Vein Endothelial Cells (HUVEC); test: XTT cytotoxicity testing; conditions: 2-64 μg/ml, vs drug free control
smiles,measurement,setting,value
"O=C(O[C@@H]1Cc2c(O)cc(O)cc2O[C@@H]1c1ccc(O)c(O)c1)c1cc(O)c(O)c(O)c1 [ECG, epicatechin gallate]",FIC,[1]; Baicalein with ECG,0.25
same,MIC combine,[1]; Baicalein with ECG,8 µg/mL
same,FIC,[1]; Kuraridin with ECG,0.06
same,MIC combine,[1]; Kuraridin with ECG,32 µg/mL
same,MIC90,[1]; Staphylococcus aureus,8 µg/mL
same,MIC99,"[1]; Staphylococcus aureus, read-out: MIC 99.9",> 512 µg/mL
same,MIC,"[1]; Staphylococcus aureus, Baicalein and ECG section",32 µg/mL
same,MIC,"[1]; Staphylococcus aureus, Kuraridin and ECG section",512 µg/mL
same,Cellular toxicity (XTT assay),[2],not toxic
